# US7928107B2, “Quinazolines useful as modulators of ion channels” (Vertex Pharmaceuticals Incorporated, priority 2004, dated 2011)
# Target: NaV 1.8 channel (Homo sapiens, UniProt Q9Y5Y9)
# Assay: Activity against NaV 1.8 channel (optical membrane potential assay)
# Format: cell-based
# Description: Compounds of the invention are useful as antagonists of voltage-gated sodium ion channels. Antagonist properties of test compounds were assessed as follows. Cells expressing the NaV of interest were placed into microtiter plates. After an incubation period, the cells were stained with fluorescent dyes sensitive to the transmembrane potential. The test compounds were added to the microtiter plate. The cells were stimulated with either a chemical or electrical means to evoke a NaV dependent membrane potential change from unblocked channels, which was detected and measured with trans-membrane potential-sensitive dyes. Antagonists were detected as a decreased membrane potential response to the stimulus. The optical membrane potential assay utilized voltage-sensitive FRET sensors described by Gonzalez and Tsien (See, Gonzalez, J. E. and R. Y. Tsien (1995) “Voltage sensing by fluorescence resonance energy transfer in single cells” Biophys J 69(4): 1272-80, and Gonzalez, J. E. and R. Y. Tsien (1997) “Improved indicators of cell membrane potential that use fluorescence resonance energy transfer” Chem Biol 4(4): 269-77) in combination with instrumentation for measuring fluorescence changes such as the Voltage/Ion Probe Reader (VIPR®) (See, Gonzalez, J. E., K. Oades, et al. (1999) “Cell-based assays and instrumentation for screening ion-channel targets” Drug Discov Today 4(9): 431-439).
# 24 hours before the assay on VIPR, CHO cells endogenously expressing a NaV1.2 type voltage-gated NaV are seeded in 96-well poly-lysine coated plates at 60,000 cells per well. Other subtypes are performed in an analogous mode in a cell line expressing the NaV of interest. • 1) On the day of the assay, medium is aspirated and cells are washed twice with 225 μL of Bath Solution #2 (BS#2). • 2) A 15 uM CC2-DMPE solution is prepared by mixing 5 mM coumarin stock solution with 10% Pluronic 127 1:1 and then dissolving the mix in the appropriate volume of BS#2. • 3) After bath solution is removed from the 96-well plates, the cells are loaded with 80 μL of the CC2-DMPE solution. Plates are incubated in the dark for 30 minutes at room temperature. • 4) While the cells are being stained with coumarin, a […] solution in BS#2 is prepared. In addition to DiSBAC2(3), this solution should contain 0.75 mM ABSCl and […] (prepared from 10 mM EtOH stock, Sigma #V-5754). • 5) After 30 minutes, CC2-DMPE is removed and the cells are washed twice with 225 μL of BS#2. As before, the residual volume should be 40 μL. • 6) Upon removing the bath, the cells are loaded with 80 μL of the DiSBAC2(3) solution, after which test compound, dissolved in DMSO, is added to achieve the desired test concentration to each well from the drug addition plate and mixed thoroughly. The volume in the well should be roughly 121 μL. The cells are then incubated for 20-30 minutes. • 7) Once the incubation is complete, the cells are ready to be assayed on VIPR® with a sodium add back protocol. 120 μL of Bath solution #1 is added to stimulate the NaV dependent depolarization. […] was used as an antagonist positive control for block of the NaV channel.
# Data are analyzed and reported as normalized ratios of background-subtracted emission intensities measured in the 460 nm and 580 nm channels. Background intensities are then subtracted from each assay channel. Background intensities are obtained by measuring the emission intensities during the same time periods from identically treated assay wells in which there are no cells. The response as a function of time is then reported as the ratios obtained using the following formula: […]
# The data is further reduced by calculating the initial (Ri) and final (Rf) ratios. These are the average ratio values during part or all of the pre-stimulation period, and during sample points during the stimulation period. The response to the stimulus R=Rf/Ri is then calculated. […]
# Sequence of NaV 1.8 channel (Q9Y5Y9 whole entry): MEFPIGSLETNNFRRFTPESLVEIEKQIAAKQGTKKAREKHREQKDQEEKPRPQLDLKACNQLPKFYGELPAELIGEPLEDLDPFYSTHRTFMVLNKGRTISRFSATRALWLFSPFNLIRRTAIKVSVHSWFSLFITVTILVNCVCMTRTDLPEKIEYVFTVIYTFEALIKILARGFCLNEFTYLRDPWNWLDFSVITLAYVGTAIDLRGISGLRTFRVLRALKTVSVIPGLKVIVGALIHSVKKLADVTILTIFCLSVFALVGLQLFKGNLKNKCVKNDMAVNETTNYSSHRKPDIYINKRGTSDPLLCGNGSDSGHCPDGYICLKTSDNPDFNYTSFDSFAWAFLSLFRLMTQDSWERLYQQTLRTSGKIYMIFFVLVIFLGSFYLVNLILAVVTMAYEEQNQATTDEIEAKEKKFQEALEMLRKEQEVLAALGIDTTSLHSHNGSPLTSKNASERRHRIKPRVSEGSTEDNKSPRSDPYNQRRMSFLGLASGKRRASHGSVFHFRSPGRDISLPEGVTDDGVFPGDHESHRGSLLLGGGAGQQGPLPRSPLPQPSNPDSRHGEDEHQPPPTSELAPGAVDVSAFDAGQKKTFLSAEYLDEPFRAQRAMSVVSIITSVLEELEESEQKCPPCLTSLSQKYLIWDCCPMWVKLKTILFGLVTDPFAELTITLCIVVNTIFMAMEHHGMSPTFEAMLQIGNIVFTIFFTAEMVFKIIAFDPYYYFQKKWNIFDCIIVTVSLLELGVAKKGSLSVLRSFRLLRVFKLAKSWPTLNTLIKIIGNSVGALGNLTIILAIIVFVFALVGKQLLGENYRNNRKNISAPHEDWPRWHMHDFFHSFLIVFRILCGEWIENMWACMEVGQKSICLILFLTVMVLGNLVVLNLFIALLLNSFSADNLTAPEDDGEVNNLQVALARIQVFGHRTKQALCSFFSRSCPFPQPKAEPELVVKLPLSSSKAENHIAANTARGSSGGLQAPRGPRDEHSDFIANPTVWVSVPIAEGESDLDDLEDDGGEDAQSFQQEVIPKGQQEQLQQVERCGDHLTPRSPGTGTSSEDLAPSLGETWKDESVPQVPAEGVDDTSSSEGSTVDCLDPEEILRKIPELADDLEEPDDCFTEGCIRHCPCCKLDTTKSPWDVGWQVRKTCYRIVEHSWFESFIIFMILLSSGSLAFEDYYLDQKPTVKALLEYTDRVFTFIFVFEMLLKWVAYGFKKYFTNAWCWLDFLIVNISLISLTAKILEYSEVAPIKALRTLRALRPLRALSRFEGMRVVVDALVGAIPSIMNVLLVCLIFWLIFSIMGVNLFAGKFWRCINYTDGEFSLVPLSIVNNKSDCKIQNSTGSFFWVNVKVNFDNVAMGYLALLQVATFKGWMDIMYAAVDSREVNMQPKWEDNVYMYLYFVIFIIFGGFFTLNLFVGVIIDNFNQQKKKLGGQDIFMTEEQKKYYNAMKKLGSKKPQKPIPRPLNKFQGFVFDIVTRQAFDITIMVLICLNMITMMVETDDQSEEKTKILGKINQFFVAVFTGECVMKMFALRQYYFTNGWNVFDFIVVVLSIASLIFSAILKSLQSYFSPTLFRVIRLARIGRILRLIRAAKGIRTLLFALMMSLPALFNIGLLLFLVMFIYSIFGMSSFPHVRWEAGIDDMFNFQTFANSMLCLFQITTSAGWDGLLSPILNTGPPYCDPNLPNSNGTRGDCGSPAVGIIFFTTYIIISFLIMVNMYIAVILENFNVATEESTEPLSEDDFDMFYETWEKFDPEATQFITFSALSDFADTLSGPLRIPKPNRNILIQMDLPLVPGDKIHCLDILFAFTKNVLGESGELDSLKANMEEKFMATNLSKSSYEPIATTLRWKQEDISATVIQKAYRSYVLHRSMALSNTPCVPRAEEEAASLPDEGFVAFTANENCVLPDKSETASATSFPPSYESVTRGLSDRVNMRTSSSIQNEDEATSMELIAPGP
row,SMILES,IC50 [µM]
1,"O=C(N[C@@H]1CCN(c2nc(-c3ccccc3O)nc3ccc(F)cc23)C1)C(O)c1ccc(F)cc1 (stereo partly drawn) [Example 358, N—((R)-1-(6-Fluoro-2-(2-hydroxyphenyl)quinazolin-4-yl)pyrrolidin-3-yl)-2-(4-fluorophenyl)-2-hydroxyacetamide]",> 10
2,"COCCOC(=O)NC[C@@H]1CCN(c2nc(-c3c(O)cccc3F)nc3cc(C)ccc23)C1 [Example 373, 2-Methoxyethyl ((S)-1-(2-(2-fluoro-6-hydroxyphenyl)-7-methylquinazolin-4-yl)pyrrolidin-3-yl)methylcarbamate]",2 to 10
3,"CNCC(=O)N(C)CC(=O)O[C@H](CC(C)C)C(=O)N1CCN(c2nc(-c3ccccc3O)nc3cc(C)ccc23)CC1 [Example 169, (R)-[Methyl-(2-methylamino-acetyl)-amino]-acetic acid 1-{4-[2-(2-hydroxy-phenyl)-7-methyl-quinazolin-4-yl]-piperazine-1-carbonyl}-3-methyl-butyl ester]",> 10
4,"CC(C)(C)COC(=O)NC[C@@H]1CCN(c2nc(-c3ccccc3O)nc3ccc(F)cc23)C1 [Example 375, Neopentyl ((S)-1-(6-fluoro-2-(2-hydroxyphenyl)quinazolin-4-yl)pyrrolidin-3-yl)methylcarbamate]",> 10
5,"Cc1ccc2c(N3CCN(C(=O)[C@H](O)CC(C)C)CC3)nc(-c3cc(F)ccc3O)nc2c1 [Example 136, (R)-1-(4-(2-(5-Fluoro-2-hydroxyphenyl)-7-methylquinazolin-4-yl)piperazin-1-yl)-2-hydroxy-4-methylpentan-1-one]",> 10
6,"CC(C)C[C@@H](O)C(=O)N1CCN(c2nc(-c3ccccc3O)nc3ccccc23)CC1 [Example 102, (R)-2-Hydroxy-1-(4-(2-(2-hydroxyphenyl)quinazolin-4-yl)piperazin-1-yl)-4-methylpentan-1-one]",2 to 10
7,"O=C(NC[C@@H]1CCN(c2nc(-c3ccccc3O)nc3ccc(F)cc23)C1)O[C@H]1CCOC1 [Example 356, (S)-Tetrahydrofuran-3-yl ((S)-1-(6-fluoro-2-(2-hydroxyphenyl)quinazolin-4-yl)pyrrolidin-3-yl)methylcarbamate]",> 10
8,Cc1ccc2c(N3CCC(NC(=O)O[C@@H]4CO[C@H]5OCC[C@H]54)CC3)nc(-c3ccccc3O)nc2c1 [Example 280],2 to 10
9,Cc1ccc2c(N3CCC(NC(=O)[C@@H](O)CC(C)C)CC3)nc(-c3ccccc3O)nc2c1 [Example 268],> 10
10,"Cc1ccc2c(N3CC[C@H](NC(=O)O[C@H]4CCOC4)C3)nc(-c3ccccc3O)nc2c1 [Example 304, (S,S)-{1-[2-(2-Hydroxy-phenyl)-7-methyl-quinazolin-4-yl]-pyrrolidin-3-yl}-carbamic acid tetrahydro-furan-3-yl ester]",> 10
11,Cc1ccc2c(N3CCC(NC(=O)C(O)C(C)C)CC3)nc(-c3ccccc3O)nc2c1 (centres unmarked) [Example 264],> 10
12,"Cc1ccc2c(N3CC[C@@H](CNC(=O)OCc4ccccc4)C3)nc(-c3ccccc3O)nc2c1 [Example 363, Benzyl ((S)-1-(2-(2-hydroxyphenyl)-7-methylquinazolin-4-yl)pyrrolidin-3-yl)methylcarbamate]",2 to 10
13,"CCCCC(O)C(=O)N1CCN(c2nc(-c3ccccc3O)nc3ccccc23)CC1 (centres unmarked) [Example 159, 2-Hydroxy-1-(4-(2-(2-hydroxyphenyl)quinazolin-4-yl)piperazin-1-yl)hexan-1-one]",2 to 10
14,"Cc1ccc2c(N3CCC[C@@H](CNC(=O)OC(C)C)C3)nc(-c3ccccc3O)nc2c1 [Example 255, Isopropyl ((S)-1-(2-(2-hydroxyphenyl)-7-methylquinazolin-4-yl)piperidin-3-yl)methylcarbamate]",> 10
15,"Cc1ccc2c(N3CCCC(CNC(=O)OCC(C)C)C3)nc(-c3ccccc3O)nc2c1 (centres unmarked) [Example 250, Isobutyl (1-(2-(2-hydroxyphenyl)-7-methylquinazolin-4-yl)piperidin-3-yl)methylcarbamate]",< 2
16,"CC(O)(C(=O)N1CCN(c2nc(-c3ccccc3O)nc3ccccc23)CC1)C(F)(F)F (centres unmarked) [Example 178, 2-(Trifluoromethyl)-2-hydroxy-1-(4-(2-(2-hydroxyphenyl)quinazolin-4-yl)piperazin-1-yl)propan-1-one]",> 10
17,"Cc1ccc2c(N3CC[C@@H](NC(=O)C4CC4)C3)nc(-c3c(O)cccc3F)nc2c1 [Example 346, N—((R)-1-(2-(2-Fluoro-6-hydroxyphenyl)-7-methylquinazolin-4-yl)pyrrolidin-3-yl)cyclopropanecarboxamide]",2 to 10

# Now from value to compound:
row,IC50 [µM],SMILES
1,> 10,"Cc1ccc2c(N3CCN(C(=O)CCN4CCCCC4)CC3)nc(-c3ccccc3O)nc2c1 [Example 175, 1-(4-(2-(2-Hydroxyphenyl)-7-methylquinazolin-4-yl)piperazin-1-yl)-3-(piperidin-1-yl)propan-1-one]"
2,2 to 10,"CCOC(=O)NC[C@@H]1CCCN(c2nc(-c3ccccc3O)nc3cc(C)ccc23)C1 [Example 254, Ethyl((S)-1-(2-(2-hydroxyphenyl)-7-methylquinazolin-4-yl)piperidin-3-yl)methylcarbamate]"
3,2 to 10,"CCOC(=O)NCC1CCCN(c2nc(-c3ccccc3O)nc3cc(C)ccc23)C1 (centres unmarked) [Example 251, Ethyl (1-(2-(2-hydroxyphenyl)-7-methylquinazolin-4-yl)piperidin-3-yl)methylcarbamate]"
4,2 to 10,"Cc1ccc2c(N3CCN(C(=O)C(C)(C)O)CC3)nc(-c3ccccc3O)nc2c1 [Example 108, 2-Hydroxy-1-(4-(2-(2-hydroxyphenyl)-7-methylquinazolin-4-yl)piperazin-1-yl)-2-methylpropan-1-one]"
5,> 10,"CC[C@@H](C)[C@@H](O)C(=O)N1CCN(c2nc(-c3ccccc3O)nc3cc(C)ccc23)CC1 [Example 176, (2R,3R)-2-Hydroxy-1-(4-(2-(2-hydroxyphenyl)-7-methylquinazolin-4-yl)piperazin-1-yl)-3-methylpentan-1-one]"
6,> 10,"Cc1ccc2c(N3CC[C@@H](NC(=O)CCC4CCCC4)C3)nc(-c3ccccc3O)nc2c1 [Example 323, (R)-3-Cyclopentyl-N-{1-[2-(2-hydroxy-phenyl)-7-methyl-quinazolin-4-yl]-pyrrolidin-3-yl}-propionamide]"
7,> 10,"CCC(C)(O)C(=O)N1CCN(c2nc(-c3ccccc3O)nc3ccccc23)CC1 (centres unmarked) [Example 129, 2-Hydroxy-1-(4-(2-(2-hydroxyphenyl)quinazolin-4-yl)piperazin-1-yl)-2-methylbutan-1-one]"
8,> 10,"Cc1ccc2c(N3CCN(C(=O)[C@H](O)CC(=O)N(C)C)CC3)nc(-c3ccccc3O)nc2c1 [Example 104, (R)-3-Hydroxy-4-(4-(2-(2-hydroxyphenyl)-7-methylquinazolin-4-yl)piperazin-1-yl)-N,N-dimethyl-4-oxobutanamide]"
9,< 2,"Cc1ccc2c(N3CCC(NC(=O)OCC4CCCCO4)CC3)nc(-c3ccccc3O)nc2c1 (centres unmarked) [Example 219, {1-[2-(2-Hydroxy-phenyl)-7-methyl-quinazolin-4-yl]-piperidin-4-yl}-carbamic acid tetrahydro-pyran-2-ylmethyl ester]"
10,> 10,"Cc1ccc2c(N3CCN(C(=O)[C@H](O)CC(C)(C)F)CC3)nc(-c3ccccc3O)nc2c1 [Example 125, (R)-4-Fluoro-2-hydroxy-1-{4-[2-(2-hydroxy-phenyl)-7-methyl-quinazolin-4-yl]-piperazin-1-yl}-4-methyl-pentan-1-one]"
11,2 to 10,Cc1ccc2c(N3CCN(C(=O)OCC4CCCO4)CC3)nc(-c3ccccc3O)nc2c1 (centres unmarked) [Example 185]
12,2 to 10,"CCCC(O)C(=O)N1CCN(c2nc(-c3ccccc3O)nc3cc(C)ccc23)CC1 (centres unmarked) [Example 134, 2-Hydroxy-1-(4-(2-(2-hydroxyphenyl)-7-methylquinazolin-4-yl)piperazin-1-yl)pentan-1-one]"
